In patent publication US11766468B2, “Method of treating prostate cancer with GnRH antagonist” (priority 2012, dated 2023):
Marks after values point to notes of the source that are not given here.

Experiment: CS21 safety: treatment-emergent adverse events (MedDRA SOC/PT), crude incidence, also by subgroup
Type: in vivo
Conditions: for Musculoskeletal and connective tissue disorders, % of patients: pooled degarelix
Method: The safety variables for this study were assessed on the following: the frequency and severity of adverse events (AEs); the presence of clinically significant changes in laboratory parameters (clinical chemistry, hematology and urinalysis); changes in electrocardiograms (ECGs) and vital signs; changes detected by physical examination; and body weight.
An AE was therefore any unfavorable or unintended sign (including an abnormal laboratory finding), symptom or disease temporally associated with the use of the product, whether or not related to the IMP.
An adverse drug reaction (ADR) was defined as an AE evaluated by the investigator as being probably or possibly related to treatment with the IMP.
AEs were graded according to the National Cancer Institute (NCI) Common Terminology Criteria for Adverse Events (CTCAE). In accordance with the CTCAE criteria, AEs were rated on a five-point scale corresponding to mild, moderate, severe, life-threatening or disabling and death. For those AEs not described in the CTCAE, a separate five-point rating scale was used for rating of the intensity of AEs as follows below:
Safety parameters were evaluated for all patients included in the ITT analysis set, comprising all 610 randomized patients who received at least one dose of study medication. All safety tables include four columns: the three treatment groups described separately, and the pooled degarelix group.
Adverse events were regarded as ‘treatment-emergent’ if they occurred in the time interval from initial dosing to end-of-study. Adverse events were considered ‘pre-treatment’ if they occurred between screening and the initial injections of IMP. As described above, all AEs were classified according to MedDRA (version 10.0) system organ class (SOC), sorted alphabetically, and by preferred term (PT), in decreasing frequency of occurrence. Treatment-emergent AEs were expressed in terms of intensity (using NCI CTCAE) and relationship to study drug.
Using the results from the summary of clinical efficacy (SCE) and summary of clinical safety (SCS) findings, different patient subgroups were analyzed. Subgroup distinguishers included race (white, black, and other), age (<65 years, […], and >75 years), weight (<70 kg, ≥70−<90 kg, and ≥90 kg), body mass index (BMI) (≤20, >20 to 30, and >30 kg/m^2)), region (North-America, Western Europe, Central and Eastern Europe and Other), and stage of prostate cancer (e.g., localized, locally advanced, and metastatic).

[1] = degarelix Total (pooled), leuprolide 7.5 mg
[2] = degarelix Total (pooled), leuprolide 7.5 mg, listed as leuprolide

## CCNC(=O)[C@@H]1CCCN1C(=O)[C@H](CCCNC(=N)N)NC(=O)[C@H](CC(C)C)NC(=O)[C@@H](CC(C)C)NC(=O)[C@H](Cc1ccc(O)cc1)NC(=O)[C@H](CO)NC(=O)[C@H](Cc1c[nH]c2ccccc12)NC(=O)[C@H](Cc1c[nH]cn1)NC(=O)[C@@H]1CCC(=O)N1 [Leuprolide, leuprolide, reference compound]
Age <65
  Musculoskeletal and connective tissue disorders, % of patients: (34%)**
PCA = Localised
  Musculoskeletal and connective tissue disorders, % of patients: (25%)
PCA = Locally advanced
  Musculoskeletal and connective tissue disorders, % of patients: (19%)
PCA = Metastatic
  Musculoskeletal and connective tissue disorders, % of patients: (36%)
Race = White
  Musculoskeletal and connective tissue disorders, % of patients: (26%)**
Weight <70 kg
  Musculoskeletal and connective tissue disorders, % of patients: (36%)*
Weight >=90 kg
  Musculoskeletal and connective tissue disorders, % of patients: (32%)*
[1]
  Deaths (Grade 5), % of patients: 4%
  Deaths (Grade 5), E events: 10
  Deaths (Grade 5), N patients: 9
  Infections & infestations, % of patients: (24%)
  Musculoskeletal & connective tissue disorders, % of patients: (26%)
  Skin & subcutaneous tissue disorders, % of patients: ( 5%)
  Urinary tract infection, % of patients: ( 9%)
[2]
  Infections & infestations, % of patients: 24%
  Musculoskeletal & connective tissue disorders, % of patients: 26%
  Urinary tract infection, % of patients: 9%
In vivo
  Atrioventricular block first degree, % of patients: (6%)*
  Bronchitis, % of patients: ( 8%)*
  Chest pain, % of patients: ( 3%)*
  Cystitis noninfective, % of patients: (2%)*
  Deep vein thrombosis, % of patients: (2%)*
  Depression, % of patients: (6%)*
  Diarrhoea, % of patients: (8%)*
  Dyspnoea, % of patients: (6%)*
  Excoriation, % of patients: ( 4%)
  Fall, % of patients: ( 2%)
  Gynaecomastia, % of patients: (3%)
  Injury, poisoning and procedural complications, % of patients: (12%)**
  Investigations, % of patients: (30%)
  Libido decreased, % of patients: (3%)
  Musculoskeletal stiffness, % of patients: (2%)*
  Myocardial ischaemia, % of patients: ( 3%)*
  Nervous system disorders, % of patients: (10%)
  Orthostatic hypotension, % of patients: (2%)*
  Pain in extremity, % of patients: ( 9%)
  Pelvic pain, % of patients: (8%)*
  Psychiatric disorders, % of patients: (14%)
  Respiratory, thoracic and mediastinal disorders, % of patients: (10%)
  Syncope, % of patients: (2%)*
  Vascular disorders, % of patients: (30%)
